For two compounds, Kd and binding results are on record in publication PMC11898563 (2025).

Experiment [1] relates to MST-DA-1 (DNA, aptamer) ATAGGAGTCACGACGACCAGAAAAATAATTTAAATTTTCTACCCAATGCTTTTCGCATAATATGTGCGTCTACCTCTTGA
The experiment is described as follows: microscale thermophoresis. The following applies: 150 mM NaCl, 2 mM MgCl2; 50 mM Tris, pH 7.4, room temperature. Background: Microscale thermophoresis detects binding through changes in fluorescence in a small temperature gradient.

In experiment [2] the test system is OA-2 (DNA, aptamer) ATTTGACCATGTCGAGGGAGACGCGCAGTCGCTACCACCT
The experiment is described as follows: AuNP aggregation colorimetry. The following applies: NaCl added (100 mmol L^−1 stock); 1 μmol L^−1 aptamer, room temperature.

Experiment [3] deals with MST-OA-1 (DNA, aptamer) GGTCACCAACAACAGGGAGCGCTACGCGAAGGGTCAATGTGACGTCATGCGGATGTGTGG
The experiment is described as follows: microscale thermophoresis. The following applies: 150 mM NaCl, 2 mM MgCl2; 50 mM Tris, pH 7.5, room temperature.

Experiment [4] concerns FRET-OA-1 (DNA, aptamer) GGTCACCAACAACAGGGAGCGCTACGCGAAGGGTCAATGTGACGTCATGCGGATGTGTGG
The experiment is described as follows: fluorescence (FAM/BHQ-1 FRET) titration. As to conditions: 150 mM NaCl, 2 mM MgCl2; 50 mM Tris, pH 7.5, 37 °C, 500 nM aptamer; exact value in Figure 1C.

For experiment [5], the system named is FRET-OA-2 (DNA, aptamer) ATTTGACCATGTCGAGGGAGACGCGCAGTCGCTACCACCT
The experiment is described as follows: fluorescence (FAM/BHQ-1 FRET) titration. The following applies: 150 mM NaCl, 2 mM MgCl2; 50 mM Tris, pH 7.4, 37 °C, 500 nM aptamer; exact value in Figure 1D.

Experiment [6] concerns MST-OA-2 (DNA, aptamer) ATTTGACCATGTCGAGGGAGACGCGCAGTCGCTACCACCT
Description: microscale thermophoresis. As to conditions: 150 mM NaCl, 2 mM MgCl2; 50 mM Tris, pH 7.4, room temperature.

Experiment [7] relates to APT-mid-BHQ1 (DNA, aptamer, internal BHQ1-dT at 29) ATTTGACCATGTCGAGGGAGACGCGCAGTCGCTACCACCT
The experiment is described as follows: strand-displacement fluorescence (duplexed FRET). As to conditions: FAM-11nt-C strand displaced; 1 h after OA addition.

SMILES strings stand for the structures.

Compound `C/C(=C/C=C/[C@@H](C)C(=O)O)[C@H]1CN[C@H](C(=O)O)[C@H]1CC(=O)O` gave a Kd in experiment [1] of 1180 ± 2030 nM.
Regarding `C=C1[C@@H](O)[C@@H]2O[C@]3(CC[C@H](/C=C/[C@@H](C)[C@@H]4CC(C)=C[C@@]5(O[C@H](C[C@@](C)(O)C(=O)O)CC[C@H]5O)O4)O3)CC[C@H]2O[C@@H]1[C@@H](O)C[C@H](C)[C@H]1O[C@@]2(CCCCO2)CC[C@H]1C`, the binding entry in experiment [2] and in experiment [7] was “yes” each time. Further, the Kd in experiment [3] is 1260 ± 560 nM; in experiment [4] it was < 800 nM; in experiment [5], < 800 nM; in experiment [6] it was 257.25 ± 90.25 nM.

What is called Kd is the free concentration of one partner at which half of the binding sites on the other are occupied at equilibrium, for simple one-to-one binding. A low value points to higher affinity.
